Data published in PubChem BioAssay (NCI).
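Interpolation was linear, between the two tested concentrations surrounding the appropriate level; five concentrations were tested over 48 hours in 96-well plates. At the TGI there is no net growth.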

How the values were obtained:
Experiment in all cases: NCI anticancer screen, dose series, 48 h
OVCAR-5 ovarian = tested on: OVCAR-5 ovarian
UACC-62 melanoma = tested on: UACC-62 melanoma
MDA-MB-231 breast = tested on: MDA-MB-231 breast
MDA-MB-435 = tested on: MDA-MB-435
HOP-62 NSCLC = tested on: HOP-62 NSCLC
A549 NSCLC = tested on: A549 NSCLC
MDA-N = tested on: MDA-N
HCT-116 colon = tested on: HCT-116 colon
TK-10 renal = tested on: TK-10 renal
SF-295 CNS = tested on: SF-295 CNS
M14 melanoma = tested on: M14 melanoma
SNB-19 CNS = tested on: SNB-19 CNS
RPMI-8226 leukemia = tested on: RPMI-8226 leukemia
CCRF-CEM leukemia = tested on: CCRF-CEM leukemia
HCT-15 colon = tested on: HCT-15 colon
HL-60(TB) leukemia = tested on: HL-60(TB) leukemia
NCI-H460 lung = tested on: NCI-H460 lung
SK-MEL-2 melanoma = tested on: SK-MEL-2 melanoma
NCI-H522 lung = tested on: NCI-H522 lung
LOX IMVI melanoma = tested on: LOX IMVI melanoma
A498 renal = tested on: A498 renal
SW-620 colon = tested on: SW-620 colon
NCI-H226 lung = tested on: NCI-H226 lung
OVCAR-3 ovarian = tested on: OVCAR-3 ovarian
KM12 colon = tested on: KM12 colon
SN12C renal = tested on: SN12C renal
NCI-H23 lung = tested on: NCI-H23 lung
IGROV1 ovarian = tested on: IGROV1 ovarian
U251 CNS = tested on: U251 CNS
CAKI-1 renal = tested on: CAKI-1 renal
K-562 leukemia = tested on: K-562 leukemia
MCF7 breast = tested on: MCF7 breast
OVCAR-4 ovarian = tested on: OVCAR-4 ovarian
UO-31 renal = tested on: UO-31 renal
COLO 205 colon = tested on: COLO 205 colon
RXF 393 renal = tested on: RXF 393 renal
ACHN renal = tested on: ACHN renal
786-0 renal = tested on: 786-0 renal
SK-MEL-5 melanoma = tested on: SK-MEL-5 melanoma
SK-OV-3 ovarian = tested on: SK-OV-3 ovarian
UACC-257 melanoma = tested on: UACC-257 melanoma
SK-MEL-28 melanoma = tested on: SK-MEL-28 melanoma
SF-268 CNS = tested on: SF-268 CNS
BT-549 breast = tested on: BT-549 breast
HS 578T breast = tested on: HS 578T breast
NCI/ADR-RES ovarian = tested on: NCI/ADR-RES ovarian
HCC-2998 colon = tested on: HCC-2998 colon
HOP-92 NSCLC = tested on: HOP-92 NSCLC
HT29 colon = tested on: HT29 colon
OVCAR-8 ovarian = tested on: OVCAR-8 ovarian
MALME-3M melanoma = tested on: MALME-3M melanoma
EKVX NSCLC = tested on: EKVX NSCLC
PC-3 prostate = tested on: PC-3 prostate
MOLT-4 leukemia = tested on: MOLT-4 leukemia
SF-539 CNS = tested on: SF-539 CNS
T-47D breast = tested on: T-47D breast
DU-145 prostate = tested on: DU-145 prostate
SNB-75 CNS = tested on: SNB-75 CNS

In the case of `CC(=O)NC1C(OCc2ccccc2)OC(CO)C(O)C1OCC(=O)N1CCCC1C(=O)N[C@@H](CCC(=O)NCCNCCNc1c2ccccc2nc2cccc([N+](=O)[O-])c12)C(N)=O` (some centres not stated), the TGI (OVCAR-5 ovarian) is reported as 23.1 µM, the TGI (UACC-62 melanoma) is reported as 15.5 µM and the TGI (MDA-MB-231 breast) is reported as 9.03 µM. The TGI (MDA-MB-435) was 5.63 µM, the TGI (HOP-62 NSCLC) was 11.7 µM and the TGI (A549 NSCLC) was 9.83 µM. It also gave a TGI (MDA-N) of 6.17 µM, a TGI (HCT-116 colon) of 5.26 µM and a TGI (TK-10 renal) of 21.4 µM. For the same molecule, the TGI (SF-295 CNS) was 28.6 µM, the TGI (M14 melanoma) was 6.4 µM and the TGI (SNB-19 CNS) was 26.1 µM. The TGI (RPMI-8226 leukemia) was 3.29 µM, the TGI (CCRF-CEM leukemia) was 6.22 µM and the TGI (HCT-15 colon) was 11.8 µM. The TGI (HL-60(TB) leukemia) was > 39.5 µM, the TGI (NCI-H460 lung) was 6.63 µM and the TGI (SK-MEL-2 melanoma) was 10.8 µM. It also gave a TGI (NCI-H522 lung) of 3.96 µM, a TGI (LOX IMVI melanoma) of 20.1 µM and a TGI (A498 renal) of 9.21 µM. It also gave a TGI (SW-620 colon) of 24.5 µM, a TGI (NCI-H226 lung) of 33.8 µM and a TGI (OVCAR-3 ovarian) of 20.4 µM. The TGI (KM12 colon) was 15.6 µM, the TGI (SN12C renal) was 10.6 µM and the TGI (NCI-H23 lung) was 10.6 µM. The TGI (IGROV1 ovarian) was 14.5 µM, the TGI (U251 CNS) was 12.4 µM and the TGI (CAKI-1 renal) was 16.5 µM. The TGI (K-562 leukemia) was > 100 µM, the TGI (MCF7 breast) was 19.9 µM and the TGI (OVCAR-4 ovarian) was 14.1 µM. It also gave a TGI (UO-31 renal) of 14.8 µM, a TGI (COLO 205 colon) of 4.97 µM and a TGI (RXF 393 renal) of 6.58 µM. The TGI (ACHN renal) was 15.3 µM, the TGI (786-0 renal) was 9.17 µM and the TGI (SK-MEL-5 melanoma) was 3.38 µM. It also gave a TGI (SK-OV-3 ovarian) of 83.3 µM, a TGI (UACC-257 melanoma) of 15.6 µM and a TGI (SK-MEL-28 melanoma) of 18.2 µM. For the same molecule, the TGI (SF-268 CNS) was 25.1 µM, the TGI (BT-549 breast) was 18.9 µM and the TGI (HS 578T breast) was 23.2 µM. It also gave a TGI (NCI/ADR-RES ovarian) of 33.5 µM, a TGI (HCC-2998 colon) of 8.46 µM and a TGI (HOP-92 NSCLC) of 5.61 µM. For the same molecule, the TGI (HT29 colon) was 9.02 µM, the TGI (OVCAR-8 ovarian) was 15.4 µM and the TGI (MALME-3M melanoma) was 7.35 µM. The TGI (EKVX NSCLC) was 26.6 µM, the TGI (PC-3 prostate) was 13.7 µM and the TGI (MOLT-4 leukemia) was > 100 µM. For the same molecule, the TGI (SF-539 CNS) was 10.4 µM, the TGI (T-47D breast) was 93.6 µM and the TGI (DU-145 prostate) was > 21.2 µM. For the same molecule, the TGI (SNB-75 CNS) was 24.8 µM.
`O=C(CON1C(=O)c2ccccc2C1=O)c1ccccc1` was tested, and the TGI (OVCAR-5 ovarian) was > 100 µM, the TGI (UACC-62 melanoma) was > 100 µM and the TGI (MDA-MB-231 breast) was > 100 µM. For the same molecule, the TGI (MDA-MB-435) was > 100 µM, the TGI (HOP-62 NSCLC) was > 100 µM and the TGI (A549 NSCLC) was > 100 µM. The TGI (MDA-N) was > 100 µM, the TGI (HCT-116 colon) was > 100 µM and the TGI (TK-10 renal) was 55 µM. The TGI (SF-295 CNS) was > 100 µM, the TGI (M14 melanoma) was > 100 µM and the TGI (SNB-19 CNS) was > 100 µM. The TGI (RPMI-8226 leukemia) was 40.4 µM, the TGI (HCT-15 colon) was > 100 µM and the TGI (NCI-H460 lung) was > 100 µM. For the same molecule, the TGI (SK-MEL-2 melanoma) was > 100 µM, the TGI (NCI-H522 lung) was 36.6 µM and the TGI (LOX IMVI melanoma) was > 100 µM. The TGI (A498 renal) was > 100 µM, the TGI (SW-620 colon) was 69.1 µM and the TGI (NCI-H226 lung) was > 100 µM. For the same molecule, the TGI (OVCAR-3 ovarian) was > 100 µM, the TGI (KM12 colon) was > 100 µM and the TGI (SN12C renal) was > 100 µM. For the same molecule, the TGI (NCI-H23 lung) was > 100 µM, the TGI (IGROV1 ovarian) was > 100 µM and the TGI (U251 CNS) was > 100 µM. For the same molecule, the TGI (CAKI-1 renal) was 34.8 µM, the TGI (K-562 leukemia) was > 100 µM and the TGI (MCF7 breast) was > 100 µM. For the same molecule, the TGI (OVCAR-4 ovarian) was > 100 µM, the TGI (UO-31 renal) was 40.7 µM and the TGI (COLO 205 colon) was > 100 µM. The TGI (RXF 393 renal) was > 100 µM, the TGI (ACHN renal) was > 100 µM and the TGI (786-0 renal) was > 100 µM. The TGI (SK-MEL-5 melanoma) was > 100 µM, the TGI (SK-OV-3 ovarian) was > 100 µM and the TGI (UACC-257 melanoma) was > 100 µM. The TGI (SK-MEL-28 melanoma) was > 100 µM, the TGI (SF-268 CNS) was > 100 µM and the TGI (BT-549 breast) was > 100 µM. The TGI (HS 578T breast) was > 100 µM, the TGI (NCI/ADR-RES ovarian) was > 100 µM and the TGI (HOP-92 NSCLC) was > 100 µM. The TGI (HT29 colon) was > 100 µM, the TGI (OVCAR-8 ovarian) was > 100 µM and the TGI (MALME-3M melanoma) was 56.9 µM. For the same molecule, the TGI (EKVX NSCLC) was > 100 µM, the TGI (PC-3 prostate) was > 100 µM and the TGI (SF-539 CNS) was > 100 µM. For the same molecule, the TGI (T-47D breast) was 52.6 µM, the TGI (DU-145 prostate) was > 100 µM and the TGI (SNB-75 CNS) was > 100 µM.
